ChEMBL document CHEMBL3525933 (Drug Metab Dispos, 2012)

Key:
[1] = Drug excretion in conventional Wistar rat feces assessed as 1,7-dihydroxyxanthone metabolite level at 400 mg/kg, po administered as single dose by HPLC-DAD analysis; assay type: ADME, organism-based; design: dose 400 mg/kg, route oral; conditions: in vivo
[2] = tested on: Plasma; assay: Drug uptake in streptozotocin-induced diabetic Wistar rat plasma at 400 mg/kg, po administered as single dose by HPLC-DAD analysis; assay type: ADME, organism-based; design: dose 400 mg/kg, route oral; conditions: in vivo
[3] = tested on: Plasma; assay: Drug recovery in Wistar rat plasma at 100 ng/ml by HPLC-DAD analysis; assay type: ADME, cell-free
[4] = AUC(0 to t) in streptozotocin-induced diabetic Wistar rat at 400 mg/kg, po administered as single dose by HPLC-DAD analysis; assay type: ADME, organism-based; design: dose 400 mg/kg, route oral; conditions: plasma
[5] = Drug excretion in pseudo-germ free Wistar rat urine assessed as unchanged drug level at 400 mg/kg, po administered as single dose by HPLC-DAD analysis; assay type: ADME, organism-based; design: dose 400 mg/kg, route oral; conditions: in vivo
[6] = Drug excretion in pseudo-germ free Wistar rat feces assessed as norathyriol metabolite level at 400 mg/kg, po administered as single dose by HPLC-DAD analysis; assay type: ADME, organism-based; design: dose 400 mg/kg, route oral; conditions: in vivo
[7] = Apparent oral clearance in pseudo-germ free Wistar rat at 400 mg/kg, po administered as single dose by HPLC-DAD analysis; assay type: ADME, organism-based; design: dose 400 mg/kg, route oral; conditions: in vivo
[8] = AUC(0 to infinity) in pseudo-germ free Wistar rat at 400 mg/kg, po administered as single dose by HPLC-DAD analysis; assay type: ADME, organism-based; design: time infinity, dose 400 mg/kg, route oral; conditions: plasma
[9] = tested on: Plasma; assay: Drug metabolism in streptozotocin-induced diabetic Wistar rat plasma assessed as norathyriol metabolite formation at 400 mg/kg, po administered as single dose by HPLC-DAD analysis; assay type: ADME, organism-based; design: dose 400 mg/kg, route oral; conditions: in vivo
[10] = MRT(0 to infinity) in pseudo-germ free Wistar rat at 400 mg/kg, po administered as single dose by HPLC-DAD analysis; assay type: ADME, organism-based; design: dose 400 mg/kg, route oral; conditions: in vivo
[11] = tested on: Plasma; assay: Drug metabolism in conventional Wistar rat plasma assessed as norathyriol metabolite formation at 400 mg/kg, po administered as single dose by HPLC-DAD analysis; assay type: ADME, organism-based; design: dose 400 mg/kg, route oral; conditions: in vivo
[12] = Elimination half life in conventional Wistar rat at 400 mg/kg, po administered as single dose by HPLC-DAD analysis; assay type: ADME, organism-based; design: dose 400 mg/kg, route oral; conditions: in vivo, read-out: beta t1/2 (converted)
[13] = Drug excretion in streptozotocin-induced diabetic Wistar rat feces assessed as norathyriol metabolite level at 400 mg/kg, po administered as single dose by HPLC-DAD analysis; assay type: ADME, organism-based; design: dose 400 mg/kg, route oral; conditions: in vivo
[14] = Drug excretion in streptozotocin-induced diabetic Wistar rat feces assessed as 1,7-dihydroxyxanthone metabolite level at 400 mg/kg, po administered as single dose by HPLC-DAD analysis; assay type: ADME, organism-based; design: dose 400 mg/kg, route oral; conditions: in vivo
[15] = Cmax in streptozotocin-induced diabetic Wistar rat at 400 mg/kg, po administered as single dose by HPLC-DAD analysis; assay type: ADME, organism-based; design: dose 400 mg/kg, route oral; conditions: in vivo
[16] = Drug excretion in streptozotocin-induced diabetic Wistar rat feces assessed as unchanged drug level at 400 mg/kg, po administered as single dose by HPLC-DAD analysis; assay type: ADME, organism-based; design: dose 400 mg/kg, route oral; conditions: in vivo
[17] = AUC(0 to t) in conventional Wistar rat at 400 mg/kg, po administered as single dose by HPLC-DAD analysis; assay type: ADME, organism-based; design: dose 400 mg/kg, route oral; conditions: plasma
[18] = tested on: Plasma; assay: Drug metabolism in streptozotocin-induced diabetic Wistar rat plasma assessed as 1,7-dihydroxyxanthone metabolite formation at 400 mg/kg, po administered as single dose by HPLC-DAD analysis; assay type: ADME, organism-based; design: dose 400 mg/kg, route oral; conditions: in vivo
[19] = Tmax in pseudo-germ free Wistar rat at 400 mg/kg, po administered as single dose by HPLC-DAD analysis; assay type: ADME, organism-based; design: dose 400 mg/kg, route oral; conditions: in vivo
[20] = tested on: Plasma; assay: Stability in Wistar rat plasma measured after storage at -80 degC for 20 days by HPLC-DAD analysis; assay type: ADME, cell-free; conditions: 480 h
[21] = tested on: Plasma; assay: Drug metabolism in conventional Wistar rat plasma assessed as 1,7-dihydroxyxanthone metabolite formation at 400 mg/kg, po administered as single dose by HPLC-DAD analysis; assay type: ADME, organism-based; design: dose 400 mg/kg, route oral; conditions: in vivo
[22] = Apparent oral clearance in streptozotocin-induced diabetic Wistar rat at 400 mg/kg, po administered as single dose by HPLC-DAD analysis; assay type: ADME, organism-based; design: dose 400 mg/kg, route oral; conditions: in vivo
[23] = tested on: Plasma; assay: Drug uptake in conventional Wistar rat plasma at 400 mg/kg, po administered as single dose by HPLC-DAD analysis; assay type: ADME, organism-based; design: dose 400 mg/kg, route oral; conditions: in vivo
[24] = Drug excretion in conventional Wistar rat feces assessed as unchanged drug level at 400 mg/kg, po administered as single dose by HPLC-DAD analysis; assay type: ADME, organism-based; design: dose 400 mg/kg, route oral; conditions: in vivo
[25] = AUC(0 to infinity) in streptozotocin-induced diabetic Wistar rat at 400 mg/kg, po administered as single dose by HPLC-DAD analysis; assay type: ADME, organism-based; design: time infinity, dose 400 mg/kg, route oral; conditions: plasma
[26] = tested on: Plasma; assay: Stability in Wistar rat plasma measured within three freeze thaw cycles by HPLC-DAD analysis; assay type: ADME, cell-free
[27] = Apparent oral clearance in conventional Wistar rat at 400 mg/kg, po administered as single dose by HPLC-DAD analysis; assay type: ADME, organism-based; design: dose 400 mg/kg, route oral; conditions: in vivo
[28] = Drug excretion in conventional Wistar rat feces assessed as norathyriol metabolite level at 400 mg/kg, po administered as single dose by HPLC-DAD analysis; assay type: ADME, organism-based; design: dose 400 mg/kg, route oral; conditions: in vivo
[29] = MRT(0 to infinity) in conventional Wistar rat at 400 mg/kg, po administered as single dose by HPLC-DAD analysis; assay type: ADME, organism-based; design: dose 400 mg/kg, route oral; conditions: in vivo

- Drug excretion [1]: metabolite_not_detected
- Drug uptake [2]: Active
- Drug recovery [3]: 78.4%
- AUC(0-t) [4]: 8930 ng·h/mL
- Drug excretion [5]: metabolite_detected
- Drug excretion [6]: metabolite_not_detected
- CL/F [7]: 1690 mL/min/kg
- AUC(0-inf) [8]: 4340 ng·h/mL
- Drug metabolism [9]: metabolite_not_detected
- MRT inf [10]: 7.52 h
- Drug metabolism [11]: metabolite_not_detected
- half-life [12]: 2.47 h
- Drug excretion [13]: metabolite_detected
- Drug excretion [14]: metabolite_not_detected
- Cmax [15]: 2000 ng/mL
- Drug excretion [16]: metabolite_detected
- AUC(0-t) [17]: 3800 ng·h/mL
- Drug metabolism [18]: metabolite_not_detected
- Tmax [19]: 2.89 h
- Stability [20]: Stable
- Drug metabolism [21]: metabolite_not_detected
- CL/F [22]: 772 mL/min/kg
- Drug uptake [23]: Active
- Drug excretion [24]: metabolite_detected
- AUC(0-inf) [25]: 8950 ng·h/mL
- Stability [26]: Stable
- CL/F [27]: 2030 mL/min/kg
- Drug excretion [28]: metabolite_detected
- MRT inf [29]: 7.77 h
SMILES: O=c1c2cc(O)c(O)cc2oc2cc(O)c([C@@H]3O[C@H](CO)[C@@H](O)[C@H](O)[C@H]3O)c(O)c12 [MANGIFERIN]
